Source: patent US8802597B2, “Herbicidal pyrimidines” (E I du Pont de Nemours and Company, priority 2003, dated 2014)

Legend:
Format in all cases: in vivo
[1] = system: Surinam grass (Brachiaria decumbens); experiment: Test B pre/postemergence
Excerpt: (§1) Seeds selected from barnyardgrass (Echinochloa crus-galli), Surinam grass (Brachiaria decumbens), cocklebur (Xanthium strumarium), corn (Zea mays), crabgrass (Digitaria sanguinalis), giant foxtail (Setaria faberii), lambsquarters (Chenopodium album), morningglory (Ipomoea coccinea), pigweed (Amaranthus retroflexus), velvetleaf (Abutilon theophrasti), and wheat (Triticum aestivum) were planted and treated preemergence with test chemicals formulated in a non-phytotoxic solvent mixture which included a surfactant.
(§2) At the same time, plants selected from these crop and weed species and also blackgrass (Alopecurus myosuroides) and wild oat (Avena fatua) were treated with postemergence applications of test chemicals formulated in the same manner. Plants ranged in height from 2 to 18 cm (1- to 4-leaf stage) for postemergence treatments. Plant species in the flooded paddy test consisted of rice (Oryza sativa), umbrella sedge (Cyperus difformis), duck salad (Heteranthera limosa) and barnyardgrass (Echinochloa crus-galli) grown to the 2-leaf stage for testing. Treated plants and controls were maintained in a greenhouse for 13 to 15 days, after which time all species were compared to controls and visually evaluated. Plant response ratings, summarized in Table B, are based on a scale of 0 to 100 where 0 is no effect and 100 is complete control. A dash (-) response means no test result.

[2] = system: barnyardgrass (Echinochloa crus-galli); experiment: Test B pre/postemergence
Excerpt: as §1, §2

[3] = system: cocklebur (Xanthium strumarium); experiment: Test B pre/postemergence
Excerpt: as §1, §2

[4] = system: corn (Zea mays); experiment: Test B pre/postemergence
Excerpt: as §1, §2

[5] = system: crabgrass (Digitaria sanguinalis); experiment: Test B pre/postemergence
Excerpt: as §1, §2

[6] = system: giant foxtail (Setaria faberii); experiment: Test B pre/postemergence
Excerpt: as §1, §2

[7] = system: lambsquarters (Chenopodium album); experiment: Test B pre/postemergence
Excerpt: as §1, §2

[8] = system: morningglory (Ipomoea coccinea); experiment: Test B pre/postemergence
Excerpt: as §1, §2

[9] = system: pigweed (Amaranthus retroflexus); experiment: Test B pre/postemergence
Excerpt: as §1, §2

[10] = system: velvetleaf (Abutilon theophrasti); experiment: Test B pre/postemergence
Excerpt: as §1, §2

[11] = system: wheat (Triticum aestivum); experiment: Test B pre/postemergence
Excerpt: as §1, §2

[12] = system: blackgrass (Alopecurus myosuroides); experiment: Test B postemergence; conditions: for Blackgrass plant response rating: 125 g ai/ha, scale 0 to 100 (0 no effect, 100 complete control); for Plant response rating, Blackgrass: 500 g ai/ha, scale 0 to 100
Excerpt: as §1, §2

[13] = system: wild oat (Avena fatua); experiment: Test B postemergence; conditions: for Oat, Wild plant response rating: 125 g ai/ha, scale 0 to 100 (0 no effect, 100 complete control); for Plant response rating, Oat, Wild: 500 g ai/ha, scale 0 to 100
Excerpt: as §1, §2

[14] = system: barnyardgrass (Echinochloa crus-galli); experiment: Test B flooded paddy test; conditions: Flood, 1000 g ai/ha; scale 0 (no effect) to 100 (complete control)
Experimental: as §2

[15] = system: duck salad (Heteranthera limosa); experiment: Test B flooded paddy test; conditions: Flood, 1000 g ai/ha; scale 0 to 100
Experimental: as §2

[16] = system: rice (Oryza sativa); experiment: Test B flooded paddy test; conditions: Flood, 1000 g ai/ha; scale 0 to 100
Experimental: as §2

[17] = system: umbrella sedge (Cyperus difformis); experiment: Test B flooded paddy test; conditions: Flood, 1000 g ai/ha; scale 0 to 100
Experimental: as §2

[18] = Postemergence, 125 g ai/ha, scale 0 to 100 (0 no effect, 100 complete control)
[19] = Postemergence, 500 g ai/ha, scale 0 to 100
[20] = Preemergence, 125 g ai/ha, scale 0 to 100 (0 no effect, 100 complete control)
[21] = Preemergence, 500 g ai/ha, scale 0 to 100 (0 no effect, 100 complete control)

CCOC(=O)c1nc(C2CC2)nc(NCCOC)c1Br [Compound 39]
90: Plant response rating, Lambsquarters [7, 19]
0: Surinam Grass plant response rating [1, 18] | Plant response rating, Surinam Grass [1, 20] | Surinam Grass plant response rating [1, 21] | Barnyardgrass plant response rating [2, 18] | Plant response rating, Barnyardgrass [2, 20] | Corn plant response rating [4, 18] | Crabgrass plant response rating [5, 18] | Plant response rating, Crabgrass [5, 20] | Foxtail, Giant plant response rating [6, 18] | Plant response rating, Foxtail, Giant [6, 20] | Plant response rating, Velvetleaf [10, 20] | Wheat plant response rating [11, 18] | Plant response rating, Wheat [11, 19] | Plant response rating, Wheat [11, 20] | Blackgrass plant response rating [12] | Plant response rating, Blackgrass [12] | Oat, Wild plant response rating [13] | Plant response rating, Oat, Wild [13] | Plant response rating, Barnyardgrass [14] | Plant response rating, Ducksalad [15] | Plant response rating, Rice [16] | Plant response rating, Sedge, Umbrella [17]
100: Lambsquarters plant response rating [7, 21] | Plant response rating, Morningglory [8, 19] | Pigweed plant response rating [9, 21]
20: Barnyardgrass plant response rating [2, 21] | Foxtail, Giant plant response rating [6, 21]
10: Plant response rating, Cocklebur [3, 20] | Plant response rating, Wheat [11, 21]
80: Morningglory plant response rating [8, 18]
30: Plant response rating, Surinam Grass [1, 19] | Cocklebur plant response rating [3, 18] | Cocklebur plant response rating [3, 21] | Plant response rating, Corn [4, 20] | Plant response rating, Foxtail, Giant [6, 19] | Plant response rating, Morningglory [8, 20] | Velvetleaf plant response rating [10, 21]
40: Plant response rating, Crabgrass [5, 19] | Velvetleaf plant response rating [10, 18]
50: Plant response rating, Cocklebur [3, 19] | Plant response rating, Corn [4, 19] | Corn plant response rating [4, 21] | Crabgrass plant response rating [5, 21] | Plant response rating, Lambsquarters [7, 20] | Pigweed plant response rating [9, 18]
70: Plant response rating, Barnyardgrass [2, 19] | Lambsquarters plant response rating [7, 18] | Morningglory plant response rating [8, 21] | Plant response rating, Pigweed [9, 19] | Plant response rating, Pigweed [9, 20] | Plant response rating, Velvetleaf [10, 19]

CON=Cc1nc(C2CC2)nc(N)c1Br [Compound 48]
20: Plant response rating, Barnyardgrass [2, 19] | Cocklebur plant response rating [3, 18] | Cocklebur plant response rating [3, 21] | Plant response rating, Crabgrass [5, 19] | Plant response rating, Wheat [11, 19] | Plant response rating, Blackgrass [12] | Plant response rating, Oat, Wild [13] | Plant response rating, Barnyardgrass [14] | Plant response rating, Ducksalad [15]
50: Foxtail, Giant plant response rating [6, 21]
60: Surinam Grass plant response rating [1, 21] | Lambsquarters plant response rating [7, 18] | Pigweed plant response rating [9, 18] | Plant response rating, Pigweed [9, 20] | Plant response rating, Velvetleaf [10, 19]
80: Plant response rating, Cocklebur [3, 19] | Plant response rating, Lambsquarters [7, 19] | Plant response rating, Morningglory [8, 19] | Plant response rating, Pigweed [9, 19] | Pigweed plant response rating [9, 21]
10: Plant response rating, Surinam Grass [1, 19] | Barnyardgrass plant response rating [2, 18] | Barnyardgrass plant response rating [2, 21] | Crabgrass plant response rating [5, 18] | Plant response rating, Crabgrass [5, 20] | Foxtail, Giant plant response rating [6, 18] | Plant response rating, Foxtail, Giant [6, 19] | Velvetleaf plant response rating [10, 18]
0: Surinam Grass plant response rating [1, 18] | Plant response rating, Barnyardgrass [2, 20] | Plant response rating, Cocklebur [3, 20] | Corn plant response rating [4, 18] | Plant response rating, Corn [4, 19] | Plant response rating, Corn [4, 20] | Corn plant response rating [4, 21] | Plant response rating, Morningglory [8, 20] | Plant response rating, Velvetleaf [10, 20] | Velvetleaf plant response rating [10, 21] | Wheat plant response rating [11, 18] | Plant response rating, Wheat [11, 20] | Blackgrass plant response rating [12] | Oat, Wild plant response rating [13] | Plant response rating, Rice [16] | Plant response rating, Sedge, Umbrella [17]
30: Plant response rating, Surinam Grass [1, 20] | Plant response rating, Foxtail, Giant [6, 20] | Morningglory plant response rating [8, 18] | Morningglory plant response rating [8, 21] | Plant response rating, Wheat [11, 21]
100: Lambsquarters plant response rating [7, 21]
70: Plant response rating, Lambsquarters [7, 20]
